Measured values: article PMC10877733, “Discovery and Characterization of VU0542270, the First Selective Inhibitor of Vascular Kir6.1/SUR2B KATP Channels” (Molecular Pharmacology, 2024)

What was measured:
[1] = biological target: T1, Kir3.1/Kir3.4 (Homo sapiens, UniProt P48544+P48549); assay: Thallium flux selectivity assay Kir3.1/Kir3.4; assay type: cell-based
T1 construct: expressed in transfected cells
T1 sequence (P48549 1-501): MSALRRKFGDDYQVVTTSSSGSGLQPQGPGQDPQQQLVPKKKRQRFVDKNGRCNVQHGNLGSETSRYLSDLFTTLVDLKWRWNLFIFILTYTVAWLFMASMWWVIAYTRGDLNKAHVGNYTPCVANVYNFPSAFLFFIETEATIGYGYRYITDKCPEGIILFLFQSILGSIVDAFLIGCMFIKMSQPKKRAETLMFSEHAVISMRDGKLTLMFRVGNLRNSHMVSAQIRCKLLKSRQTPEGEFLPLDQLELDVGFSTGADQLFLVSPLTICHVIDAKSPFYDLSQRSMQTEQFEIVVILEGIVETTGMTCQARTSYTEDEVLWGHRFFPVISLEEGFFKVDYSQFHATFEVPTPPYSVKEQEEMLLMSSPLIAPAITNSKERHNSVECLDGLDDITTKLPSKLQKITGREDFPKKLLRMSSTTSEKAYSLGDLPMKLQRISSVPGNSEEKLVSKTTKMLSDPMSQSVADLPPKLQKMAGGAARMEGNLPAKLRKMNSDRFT
T1 sequence (P48544 1-419): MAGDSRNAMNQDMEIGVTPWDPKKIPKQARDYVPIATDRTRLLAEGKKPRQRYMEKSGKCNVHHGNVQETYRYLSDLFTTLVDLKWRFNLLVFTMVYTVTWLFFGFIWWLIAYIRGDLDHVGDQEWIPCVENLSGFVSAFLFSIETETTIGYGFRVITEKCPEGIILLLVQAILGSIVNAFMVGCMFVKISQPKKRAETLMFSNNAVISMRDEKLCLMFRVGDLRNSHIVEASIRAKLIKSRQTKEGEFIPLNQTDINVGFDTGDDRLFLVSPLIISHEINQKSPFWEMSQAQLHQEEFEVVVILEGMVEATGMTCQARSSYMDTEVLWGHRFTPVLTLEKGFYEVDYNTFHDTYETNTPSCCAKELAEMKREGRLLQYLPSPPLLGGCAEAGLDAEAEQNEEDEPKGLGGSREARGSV
Experimental: (§1) Quantitative thallium flux assays of Kir6.1/SUR2B activity were performed essentially as described previously for Kir6.2/SUR1 ([Raphemot et al., 2014]; [Kharade et al., 2019]). Stable T-Rex-HEK293-Kir6.1/SUR2B cells or transiently transfected HEK293T cells were plated in polyamine-coated, clear-bottomed, black-walled 384-well plates and were cultured (37°C/5% CO2) overnight in Dulbecco’s modified Eagle’s medium (Gibco, Carlsbad, CA, 11995-065) containing 10% FBS (2 mM Penicillin-Streptomycin). The following day, cells were washed with assay buffer (i.e., Hanks’ balanced salt solution/20 mM HEPES) and loaded for 1 hour with thallium sensor dye Brilliant Thallium (Ion Bioscience, San Marcos, TX) at room temperature. Dye-loaded cells were washed with assay buffer and transferred to a Panoptic Kinetic Imaging Plate Reader (Wavefront Bioscience, Franklin, TN). Control and test compound treatments were for 4 minutes prior to adding 0.5 mM chloride-free thallium stimulus buffer (Ion Bioscience) to initiate thallium flux. […] Selectivity assays against other Kir channels were performed essentially as described previously ([Kharade et al., 2018]; [McClenahan et al., 2022]).

[2] = Brain homogenate binding by equilibrium dialysis, mouse; assay type: in vitro ADME; conditions: read-out: Fu, brain (mouse)
Experimental: Determination of VU0542270 fu in […] from mouse and rat was conducted using the same methodology and procedure as described for plasma protein binding assay with the following modifications: 1) a final compound concentration of 1 μM was used, and 2) naïve rat brains were homogenized in DPBS (1:3 composition of brain:DPBS, w/w) using a Mini-Bead Beater machine to obtain brain homogenate.
The diluted fraction unbound (fu2) in brain was calculated as (analyte to IS MS peak area ratio from Trans-buffer side)/(analyte to IS MS peak area ratio from Cis-brain homogenate side). Undiluted fraction unbound for the brain was calculated using the following equation: [drawing 1]
Mean values for each species were calculated from three replicates.

[3] = biological target: T2, Kir2.1 (Homo sapiens, UniProt P63252); assay: Thallium flux selectivity assay Kir2.1; assay type: cell-based
T2 construct: expressed in transfected cells
T2 sequence (P63252 1-427): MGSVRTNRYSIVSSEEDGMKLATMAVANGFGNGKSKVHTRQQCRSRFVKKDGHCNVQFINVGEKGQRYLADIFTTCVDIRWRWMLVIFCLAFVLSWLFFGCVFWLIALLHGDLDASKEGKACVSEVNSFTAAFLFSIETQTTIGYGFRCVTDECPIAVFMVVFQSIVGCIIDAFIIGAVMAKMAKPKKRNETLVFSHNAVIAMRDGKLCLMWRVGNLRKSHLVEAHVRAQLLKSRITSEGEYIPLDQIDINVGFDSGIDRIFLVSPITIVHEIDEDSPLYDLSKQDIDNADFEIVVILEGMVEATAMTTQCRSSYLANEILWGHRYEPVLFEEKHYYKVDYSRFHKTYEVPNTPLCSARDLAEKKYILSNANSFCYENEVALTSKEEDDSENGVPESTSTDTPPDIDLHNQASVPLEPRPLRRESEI
Experimental: as §1

[4] = biological target: T3, Kir1.1 (Homo sapiens, UniProt P48048); assay: Thallium flux selectivity assay Kir1.1; assay type: cell-based
T3 construct: expressed in transfected cells
T3 sequence (P48048 1-391): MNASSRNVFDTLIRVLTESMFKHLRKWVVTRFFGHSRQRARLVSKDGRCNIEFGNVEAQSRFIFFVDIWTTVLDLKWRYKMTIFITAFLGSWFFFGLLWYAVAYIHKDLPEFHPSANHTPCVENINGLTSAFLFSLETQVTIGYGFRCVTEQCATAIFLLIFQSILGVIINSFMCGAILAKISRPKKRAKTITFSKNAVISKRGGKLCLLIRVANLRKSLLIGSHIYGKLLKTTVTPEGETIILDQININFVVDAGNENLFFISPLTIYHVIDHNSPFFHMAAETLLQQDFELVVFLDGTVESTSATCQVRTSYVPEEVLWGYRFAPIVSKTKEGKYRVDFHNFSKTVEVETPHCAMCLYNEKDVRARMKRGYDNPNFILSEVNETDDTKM
Experimental: as §1

[5] = biological target: T4, Kir4.1 (Homo sapiens, UniProt P78508); assay: Thallium flux selectivity assay Kir4.1; assay type: cell-based
T4 construct: expressed in transfected cells
T4 sequence (P78508 1-379): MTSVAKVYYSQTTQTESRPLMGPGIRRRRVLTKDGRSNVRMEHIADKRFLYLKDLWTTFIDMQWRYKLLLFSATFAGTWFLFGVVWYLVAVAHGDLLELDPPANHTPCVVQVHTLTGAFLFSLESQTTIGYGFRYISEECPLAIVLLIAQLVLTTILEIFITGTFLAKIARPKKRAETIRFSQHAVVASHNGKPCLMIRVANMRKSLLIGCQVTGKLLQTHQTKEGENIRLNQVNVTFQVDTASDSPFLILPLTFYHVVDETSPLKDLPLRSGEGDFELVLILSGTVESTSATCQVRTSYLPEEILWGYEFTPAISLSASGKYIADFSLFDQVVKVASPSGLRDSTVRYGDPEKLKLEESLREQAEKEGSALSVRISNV
Experimental: as §1

Compound: Cc1nc(-c2cccs2)sc1CNC(=O)Nc1cccs1 [VU0542270]
- IC50 [1]: > 30 µM
- fraction unbound at 6 h, 1 µM [2]: 0.02
- IC50 [3]: > 30 µM
- IC50 [4]: > 30 µM
- IC50 [5]: > 30 µM
